For data set [1], the system named is respiratory syncytial virus (RSV). The data set can be described thus: Inhibition of respiratory syncytial virus replication by CPE in HEp-2. The data set is classed as cell-based. The settings on record: human respiratory syncytial virus, HEp-2, read-out: RSV (HEp-2) EC50.
Another data set is described as follows: in vitro. As to conditions: human.
The test system of another data set is influenza A virus (H3N2). The data set is described as follows: Inhibition of influenza virus H3N2 replication by CPE in MDCK. Format: cell-based. As to conditions: MDCK cells.
A short description of data set [2]: Cytotoxicity in MDCK cells (no viral infection). Format: cell-based. As to conditions: dog, without viral infection, read-out: H3N2 (MDCK) CC50. Here is the method: (§1) Determination of the inhibitory activity of compounds on the replication of respiratory syncytial virus (RSV), human coronavirus OC43, influenza A virus, and Zika virus by Cytopathogenic effect (CPE): the experimental cells were inoculated at a certain cell density to 96 well cell culture plates, and cultured overnight in a 5% CO2, 37° C. incubator. The compounds and viruses were added the next day. Depending on the tested virus, the cells were cultured in an incubator for 3-7 days under 5% CO2, 33° C. or 37° C., until 80-95% of the cells in the virus-infected control wells without compound had pathological changes. Cell viability in each well was then detected with CellTiter-Glo or CCK-8. […] The cytotoxicity test method is the same as the corresponding antiviral test method, but without viral infection.
(§2) The antiviral activity and cytotoxicity of the compound are represented by the inhibition rate (%) of the compound on the virus-induced cellular viral effect and the cell viability (%), respectively. Calculation equations are as follows:
(§3) Cell viability (%)=(reading value of test well−average value of medium control)/(average value of cell control−average value of medium control)×100;
(§4) EC50 and CC50 values were calculated by Prism software, and the inhibition curve fitting method was “log (inhibitor) vs. response—Variable slope”.

The nature of data set [3]: Cytotoxicity in Vero cells (SARS-CoV-2 test). The data set is classed as cell-based. As to conditions: African green monkey.
The conditions of data set [4]: in monkeys; cited from earlier work.
Data set [5] in a line: Cytotoxicity in Huh7 cells (no viral infection). The data set is classed as cell-based. The settings on record: human, without viral infection, read-out: HCoV OC43 (Huh7) CC50. As for the experimental part: as §1, §2, §3, §4
For data set [6], the system named is porcine epidemic diarrhea virus (PEDV). The data set can be described thus: Inhibition of PEDV replication in Vero cells by fluorescent quantitative PCR. The settings on record: 36 h, read-out: PEDV (Vero) EC50.
Another data set deals with Zika virus. The data set can be described thus: Inhibition of Zika virus replication by CPE in Huh7. The data set is classed as cell-based.
Data set [7] has as its system 2019 novel coronavirus (SARS-CoV-2). The data set can be described thus: Inhibition of SARS-CoV-2 replication in Vero cells (qRT-PCR). The data set is classed as cell-based. As to conditions: Severe acute respiratory syndrome coronavirus 2, 48 hours, virus copy number in supernatant by qRT-PCR. For orientation: Quantitative PCR measures a nucleic acid by following its amplification.

The format of data set [8] is in vivo, rat. The settings on record: SD rats. As for the experimental part: 6 Male SD rats for each compound were divided into 2 groups (gastric administration group and intravenous injection group), 3 rats in each group. The rats were fasted for 12 h before the experiment (the intravenous experiment group was not fasted), had free access to water, and ate uniformly 4 hours after the administration. […] The dosage of C38 was 10 mg/kg for intragastric administration, 2 mg/kg for intravenous injection, and the administration vehicle was DMSO/EtOH/PEG300/0.9% NaCl (5/5/40/50, v/v/v/v). 0.2 mL of blood was collected from the jugular vein at 5 min (intravenous group only), 0.25 h, 0.5 h, 1.0 h, 2.0 h, 4.0 h, 6.0 h, 8.0 h and 24 h after the administration, placed in an EDTA-K2 test tube and centrifuged at 11,000 rpm for 5 minutes, and the plasma was separated, and stored in a −70° C. refrigerator for testing. The operation was under an ice water bath. The concentration of nucleoside metabolites in plasma was determined by LC-MS-MS, and the pharmacokinetic parameters were calculated.

The format of data set [9] is in vivo, rat. As to conditions: SD rats; for AUC(0-t) / AUC(0-∞) / Cmax / T1/2 / Tmax: nucleoside metabolite in plasma; for F % (bioavailability): nucleoside metabolite. As for the experimental part:
6 Male SD rats for each compound were divided into 2 groups (gastric administration group and intravenous injection group), 3 rats in each group. The rates were fasted for 12 h before the experiment (the intravenous experiment group was not fasted), had free access to water, and ate uniformly 4 hours after the administration. The dosages of C22 and C23 were 16 mg/kg and 20 mg/kg for intragastric administration, respectively, and the administration vehicle was 5% DMSO+5% solutol+90% saline. The intravenous injection dosages were 4 mg/kg and 5 mg/kg respectively, and the administration vehicle was DMSO/EtOH/PEG300/0.9% NaCl (5/5/40/50, v/v/v/v). 0.2 mL of blood was collected from the jugular vein 5 min, 0.25 h, 0.5 h, 1.0 h, 2.0 h, 4.0 h, 6.0 h, 8.0 h and 24 h after the administration, placed in an EDTA-K2 test tube abd centrifuged at 11,000 rpm for 5 minutes, and the plasma was separated, and stored in a −70° C. refrigerator for testing. The operation was under an ice water bath. The concentration of nucleoside metabolites in plasma was determined by LC-MS-MS, and the pharmacokinetic parameters were calculated.

The format of data set [10] is in vivo, cynomolgus monkey. The settings on record: cynomolgus monkeys, single intragastric 0.35 mmol/kg.
The mark [11] stands for this setting: nucleoside metabolite in plasma, iv 2 mg/kg.
Where [12] appears, read: nucleoside metabolite in plasma, po 10 mg/kg.

Like-named read-outs stand apart in the source and are kept apart here.

In general, EC50 refers to the midpoint of the concentration-response curve. In the case of `CC(C)C(=O)OC[C@@]1(F)O[C@@H](n2ccc(=O)[nH]c2=O)[C@@H]2OC(=O)O[C@@H]21` [Compound B2], the EC50 (in [1]; with influenza A virus (H3N2)) was > 10 µM in each case. The CC50 (in the data set “in vitro”; in data set [2]) was > 10 µM in each case.
Take `O=C1O[C@H]2[C@H](n3ccc(=O)[nH]c3=O)O[C@](F)(CO)[C@H]2O1` [Compound B1]: the concentration giving a half-maximal response (EC50) in [1] worked out at 0.99 µM; in the data set with influenza A virus (H3N2), 0.37 µM. The CC50 (in “in vitro”; in data set [2]) was > 10 µM in each case.
On to `N#C[C@@]1(c2ccc3c(N)ncnn23)O[C@H](CO)[C@@H](O)[C@H]1O` [GS-441524, (2R,3R,4S,5R)-2-(4-aminopyrrolo[2,1-F][1,2,4]triazin-7-yl)-3,4-dihydroxy-5-(hydroxymethyl)tetrahydrofuran-2-carbonitrile], for which the CC50 (in [3]; in data set [5]; in the data set “in vitro”) was > 10 µM each time. Moreover, in data set [4], the oral bioavailability entry is recorded as “less than 10%”. Also, the concentration giving a half-maximal response (EC50) is 0.73 µM in data set [1]; 0.31 µM in [6]; 15 µM in the data set on Zika virus (Huh-7, read-out: Zika (Huh7) EC50); 0.47 µM in [7].
Broadly, the AUC(0-t) is the area under the concentration-time curve up to a stated or last time point. Usually Cmax stands for the peak of the concentration-time curve. Usually Tmax stands for the time at which the peak concentration occurs. As for `[2H]c1cc([C@]2(C#N)O[C@H](CO)[C@H]3OC(CC)O[C@H]32)n2ncnc(N)c12` (stereo partly shown) [Compound C38], in data set [8] (setting [11]), the “AUC(0-t)” value is 551 ng·h/mL, the “AUC(0-∞)” value was 586 ng·h/mL, the Cmax was 217 ng/mL and the T1/2 stood at 1.9 h. For the same compound, in data set [8] (setting [12]), the “AUC(0-t)” value turned out to be 2388 ng·h/mL, the “AUC(0-∞)” value was determined as 2454 ng·h/mL, the Cmax stood at 586 ng/mL and the T1/2 is 3.1 h. Besides, in data set [8] (setting [12]), the time of peak concentration (Tmax) was 0.75 h. The “F % (bioavailability)” value in data set [8] (nucleoside metabolite, po 10 mg/kg vs iv 2 mg/kg) is given as 87%.
The term inhibition denotes the relative decrease from the control value, in per cent. For the compound `O=c1ccn([C@@H]2O[C@](F)(CO)[C@@H](O)[C@H]2O)c(=O)[nH]1` [Compound B1-N, reference compound], the EC50 in the data set with influenza A virus (H3N2) is < 1 µM. In addition, the inhibition at 5 µM with Zika virus (Huh-7, read-out: Zika (Huh7) Inhibition rate) turned out to be 30%. The CC50 in [2] was > 10 µM.
On to `CCCCCCCCCCCCCCCC(=O)OC[C@@]1(F)O[C@@H](n2ccc(=O)[nH]c2=O)[C@@H]2OC(=O)O[C@@H]21` [Compound B41], for which the EC50 in [1] was 0.46 µM; in the data set on influenza A virus (H3N2), < 0.5 µM. The CC50 (in “in vitro”; in data set [2]) was > 10 µM throughout.
Regarding `CC(C)[C@H](N)C(=O)OC[C@@]1(F)O[C@@H](n2ccc(=O)[nH]c2=O)[C@@H]2OC(=O)O[C@@H]21` [Compound B6], the 50% effective concentration (EC50) in data set [1] was 3.46 µM; in the data set on influenza A virus (H3N2) it was < 0.5 µM. Further, the CC50 (in the data set “in vitro”; in data set [2]) was > 10 µM each time.
For `O=C1O[C@H]2[C@H](n3ccc(=O)[nH]c3=O)O[C@](F)(COC(=O)C3CC3)[C@H]2O1` [Compound B4], the EC50 in [1] was determined as 1.02 µM; in the data set with influenza A virus (H3N2) it was 1.38 µM. The CC50 (in the data set “in vitro”; in [2]) was > 10 µM throughout.
Consider `N#C[C@@]1(c2ccc3c(N)ncnn23)O[C@H](CO)[C@H]2OC(=O)O[C@H]21` [Compound C21], for which the EC50 in [1] was determined as 0.49 µM. For the same compound, the CC50 in “in vitro” is > 10 µM.
Consider `[2H]c1cc([C@]2(C#N)O[C@H](CO)[C@H]3OC(=O)O[C@H]32)n2ncnc(N)c12` [Compound C22], for which, in data set [9] (iv 4 mg/kg), the “AUC(0-t)” value was 2348 ng·h/mL, the “AUC(0-∞)” value was found to be 2398 ng·h/mL, the Cmax worked out at 2883 ng/mL and the T1/2 came to 1.35 h. Besides, in data set [9] (po 16 mg/kg), the “AUC(0-t)” value was 7068 ng·h/mL, the “AUC(0-∞)” value turned out to be 7157 ng·h/mL, the Cmax came out at 2217 ng/mL and the T1/2 amounted to 1.08 h. Moreover, the Tmax in data set [9] (po 16 mg/kg) is recorded as 0.5 h. In data set [9] (po 16 mg/kg vs iv 4 mg/kg), the “F % (bioavailability)” value is 75.3%.
As to `[2H]c1cc([C@]2(C#N)O[C@H](COC(=O)C(C)C)[C@H]3OC(=O)O[C@H]32)n2ncnc(N)c12` [Compound C23], in data set [9] (iv 5 mg/kg), the exposure AUC(0-t) was determined as 3954 ng·h/mL, the “AUC(0-∞)” value worked out at 4024 ng·h/mL, the Cmax was 3903 ng/mL and the T1/2 turned out to be 5.24 h. Also, in data set [9] (po 20 mg/kg), the “AUC(0-t)” value was found to be 11360 ng·h/mL, the “AUC(0-∞)” value came to 11393 ng·h/mL, the Cmax is listed as 2933 ng/mL and the T1/2 is recorded as 3.47 h. Moreover, in data set [9] (po 20 mg/kg), the Tmax stood at 1.0 h. In addition, the “F % (bioavailability)” value in data set [9] (po 20 mg/kg vs iv 5 mg/kg) turned out to be 71.8%.
On to `CC(C)[C@H](N)C(=O)OC[C@H]1O[C@@H](n2cc/c(=N/O)[nH]c2=O)[C@@H]2OC(=O)O[C@@H]21.Cl` [Compound A6], for which, in [10] (analyte A1), the AUC(0-t) worked out at 818 ng·h/mL, the Cmax was 326 ng/mL, the Tmax was 1.50 h and the t1/2 worked out at 0.91 h. Besides, in [10] (nucleoside metabolite NHC), the AUC(0-t) came out at 2417 ng·h/mL, the Cmax amounted to 1209 ng/mL, the T1/2 was determined as 0.83 h and the Tmax is 1.50 h.
For the compound `CCC(CC)COC(=O)[C@H](C)N[P@](=O)(OC[C@@]1(F)O[C@@H](n2ccc(=O)[nH]c2=O)[C@@H]2OC(=O)O[C@@H]21)Oc1ccccc1` [Compound B14], the EC50 in data set [1] turned out to be 1.08 µM. Further, the CC50 in “in vitro” was > 10 µM.
On to `CC(C)C(=O)OC[C@H]1O[C@@H](n2ccc(NO)nc2=O)[C@@H]2OC(=O)O[C@@H]21` [Compound A2], for which, in the data set on influenza A virus (H3N2), the EC50 is > 10 µM. Moreover, the CC50 in data set [2] is > 10 µM.
For `CC(=O)OC[C@@]1(F)O[C@@H](n2ccc(=O)[nH]c2=O)[C@@H]2OC(=O)O[C@@H]21` [Compound B38], the EC50 in [1] amounted to 0.99 µM; with influenza A virus (H3N2), 0.54 µM. Moreover, the CC50 (in the data set “in vitro”; in data set [2]) was > 10 µM in each case.

The values above are taken from patent US20240166680A1, “NUCLEOSIDE ANALOG AND USE THEREOF” (SHANGHAI INSTITUTE OF MATERIA MEDICA, CHINESE ACADEMY OF …, priority 2021, published 2024).
